Data: PMC12155096 (International Journal of Molecular Sciences, 2025)
Where a name gives a salt, the structure may show the parent alone. Read-outs that look alike come from different tables or passages of the source.

Experiments:
human CYP2C9 [1] = biological target: T1, human CYP2C9 (Homo sapiens, UniProt P11712); test: biochemical
human CYP2C19 [2] = biological target: T2, human CYP2C19 (Homo sapiens, UniProt P33261); test: biochemical; conditions: for AC50: CYP2C19 AC50 (half-maximal activity concentration)
T2 sequence (P33261 whole entry): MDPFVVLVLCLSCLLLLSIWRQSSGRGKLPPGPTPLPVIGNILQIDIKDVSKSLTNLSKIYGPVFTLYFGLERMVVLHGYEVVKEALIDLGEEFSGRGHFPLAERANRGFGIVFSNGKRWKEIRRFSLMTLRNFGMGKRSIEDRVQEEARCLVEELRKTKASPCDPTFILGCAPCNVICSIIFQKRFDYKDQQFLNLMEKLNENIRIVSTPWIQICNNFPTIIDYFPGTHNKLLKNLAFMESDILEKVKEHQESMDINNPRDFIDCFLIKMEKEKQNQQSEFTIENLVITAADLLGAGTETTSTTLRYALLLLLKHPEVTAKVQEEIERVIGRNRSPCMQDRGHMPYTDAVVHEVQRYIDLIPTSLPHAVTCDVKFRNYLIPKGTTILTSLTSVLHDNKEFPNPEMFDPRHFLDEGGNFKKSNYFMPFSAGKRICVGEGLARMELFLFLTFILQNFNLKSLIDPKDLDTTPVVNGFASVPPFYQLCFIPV

human CYP2C9 [3] = biological target: T1, human CYP2C9
human CYP2C19 [4] = biological target: T2, human CYP2C19
human CYP1A2 = biological target: T3, human CYP1A2 (Homo sapiens, UniProt P05177)
T3 sequence (P05177 1-516): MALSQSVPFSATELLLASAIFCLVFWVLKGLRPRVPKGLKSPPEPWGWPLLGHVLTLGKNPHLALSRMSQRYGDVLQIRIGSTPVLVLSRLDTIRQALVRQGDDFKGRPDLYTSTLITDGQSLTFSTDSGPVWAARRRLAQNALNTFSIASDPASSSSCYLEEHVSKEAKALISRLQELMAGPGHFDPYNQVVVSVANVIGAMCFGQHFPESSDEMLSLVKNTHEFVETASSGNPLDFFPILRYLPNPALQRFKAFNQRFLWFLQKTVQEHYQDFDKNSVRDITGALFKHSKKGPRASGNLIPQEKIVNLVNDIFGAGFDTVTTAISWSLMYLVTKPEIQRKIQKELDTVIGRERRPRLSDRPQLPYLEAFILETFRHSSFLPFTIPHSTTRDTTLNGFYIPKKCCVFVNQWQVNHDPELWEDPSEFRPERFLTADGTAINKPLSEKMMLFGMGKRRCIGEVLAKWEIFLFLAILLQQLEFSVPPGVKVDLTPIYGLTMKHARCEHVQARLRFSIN

human CYP2D6 = human CYP2D6 (Homo sapiens, UniProt P10635)
Sequence of human CYP2D6 (P10635 whole entry): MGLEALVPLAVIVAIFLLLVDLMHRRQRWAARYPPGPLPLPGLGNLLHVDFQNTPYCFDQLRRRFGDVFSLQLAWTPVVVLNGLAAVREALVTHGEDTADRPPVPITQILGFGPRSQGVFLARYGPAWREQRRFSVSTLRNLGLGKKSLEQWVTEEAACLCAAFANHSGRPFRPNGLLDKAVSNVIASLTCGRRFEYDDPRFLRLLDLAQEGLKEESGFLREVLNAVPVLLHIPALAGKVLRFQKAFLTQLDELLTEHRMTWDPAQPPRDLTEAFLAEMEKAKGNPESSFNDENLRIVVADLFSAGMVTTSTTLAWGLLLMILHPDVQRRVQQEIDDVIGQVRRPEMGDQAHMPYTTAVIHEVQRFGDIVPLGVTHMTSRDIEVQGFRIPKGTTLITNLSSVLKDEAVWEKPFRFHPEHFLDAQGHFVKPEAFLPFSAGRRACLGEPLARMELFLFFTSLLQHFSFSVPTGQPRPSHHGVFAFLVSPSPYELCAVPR

[5] = CYP2C9 IC50 (half-maximal inhibitory concentration)
[6] = CYP2C9 AC50 (half-maximal activity concentration)
[7] = CYP2C19 IC50 (half-maximal inhibitory concentration)

T1 sequence (P11712 whole entry): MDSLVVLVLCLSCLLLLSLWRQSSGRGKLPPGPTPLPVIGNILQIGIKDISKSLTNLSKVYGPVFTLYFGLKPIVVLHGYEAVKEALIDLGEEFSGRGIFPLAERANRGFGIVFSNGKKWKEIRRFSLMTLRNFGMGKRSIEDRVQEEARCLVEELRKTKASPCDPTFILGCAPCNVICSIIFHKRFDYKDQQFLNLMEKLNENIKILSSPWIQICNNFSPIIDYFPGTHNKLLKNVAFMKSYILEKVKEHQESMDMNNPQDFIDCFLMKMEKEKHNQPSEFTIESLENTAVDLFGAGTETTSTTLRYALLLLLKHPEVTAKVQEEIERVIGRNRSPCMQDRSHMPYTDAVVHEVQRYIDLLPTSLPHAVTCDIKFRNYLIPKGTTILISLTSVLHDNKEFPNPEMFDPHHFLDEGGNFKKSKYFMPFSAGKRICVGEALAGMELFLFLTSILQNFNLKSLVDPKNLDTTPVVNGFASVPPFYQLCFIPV

CCOC(=O)O[C@]1(C(=O)OCCl)CC[C@H]2[C@@H]3CCC4=CC(=O)C=C[C@]4(C)[C@H]3[C@@H](O)C[C@@]21C [Loteprednol etabonate, reference compound]
IC50 (human CYP2C9 [1]; [5]): 29.2 µM

Cc1nc2ccccc2c(=O)n1-c1ccccc1Cl [Mecloqualone]
AC50 (human CYP2C9 [1]; [6]): 37.7 µM | AC50 (human CYP2C19 [2]): 2.88 µM

COCC(=O)N(c1c(C)cccc1C)C(C)C(=O)OC (stereo not drawn) [Metalaxyl]
AC50 (human CYP2C9 [1]; [6]): 59.1 µM | AC50 (human CYP2C19 [2]): 38.4 µM

CN1CC[C@]23c4c5ccc(O)c4O[C@H]2[C@@H](O)C=C[C@H]3[C@H]1C5 [Morphine sulfate pentahydrate]
CYP2C9 AC50 (half-maximal activity concentration) (human CYP2C9 [3]): Inactive | CYP2C19 AC50 (half-maximal activity concentration) (human CYP2C19 [4]): Inactive | CYP1A2 AC50 (half-maximal activity concentration) (human CYP1A2): Inactive

Cc1ccccc1C(=O)Nc1ccc(C(=O)N2CCCC(N(C)C)c3ccccc32)cc1 (stereo not drawn) [Mozavaptan]
IC50 (human CYP2C9 [1]; [5]): 26 µM | CYP2C9 Efficacy (in parenthesis) (human CYP2C9 [3]; human): 26.02 ± 12.23 (-35 ± 0) %

CC(C)[C@H]1CC[C@H](C(=O)N[C@H](Cc2ccccc2)C(=O)O)CC1 [Nateglinide]
AC50 (human CYP2C9 [1]; [6]): 14 µM

O=C(OCC(COC(=O)c1cccnc1)(COC(=O)c1cccnc1)COC(=O)c1cccnc1)c1cccnc1 [Niceritrol]
IC50 (human CYP2C9 [1]): 3.44 µM

CCOC(=O)C1=C(C)NC(C)=C(C(=O)OC)C1c1cccc([N+](=O)[O-])c1 (stereo not drawn) [Nitrendipine]
IC50 (human CYP2C9 [1]; [5]): 0.88 µM | IC50 (human CYP2C19 [2]; [7]): 1.4 µM

CC(=O)Oc1ccc(C2(c3ccc(OC(C)=O)cc3)C(=O)Nc3ccccc32)cc1 [Oxyphenisatin acetate]
AC50 (human CYP2C9 [1]; [6]): 5.5 µM | AC50 (human CYP2C19 [2]): 11.9 µM

O=c1[nH]c2ccccc2n1C1CCN(CCCC(c2ccc(F)cc2)c2ccc(F)cc2)CC1 [Pimozide]
CYP1A2 AC50 (half-maximal activity concentration) (human CYP1A2): Inactive

CC(C)(C)C(=O)OCOC(=O)[C@@H]1N2C(=O)[C@@H](NC(=O)[C@H](N)c3ccccc3)[C@H]2SC1(C)C [Pivampicillin]
IC50 (human CYP2C9 [1]; [5]): 23.6 µM

COc1cc([C@@H]2c3cc4c(cc3[C@H](O)[C@H]3COC(=O)[C@H]23)OCO4)cc(OC)c1OC [Podofilox]
IC50 (human CYP2C9 [1]): 1.97 µM | IC50 (human CYP2C19 [2]; [7]): 3.71 µM

CN1C(CSCC(F)(F)F)Nc2cc(Cl)c(S(N)(=O)=O)cc2S1(=O)=O (stereo not drawn) [Polythiazide]
AC50 (human CYP2C9 [1]; [6]): 14.9 µM | AC50 (human CYP2C19 [2]): 22 µM

CCCOC(=O)Cc1ccc(OCC(=O)N(CC)CC)c(OC)c1 [Propanidid]
AC50 (human CYP2C9 [1]; [6]): 21.2 µM

CCCOC(C(=O)OC1CCN(C)CC1)(c1ccccc1)c1ccccc1.Cl [Propiverine hydrochloride]
IC50 (human CYP2D6): 6.81 µM

COc1ccc(S(=O)(=O)N2c3ccc(Cl)cc3[C@](O)(c3ccccc3Cl)[C@@H]2C(=O)N2CCC[C@H]2C(N)=O)cc1OC [Relcovaptan]
IC50 (human CYP2C9 [1]): 27.7 ± 9.09 µM

CN(CCOc1ccc(CC2SC(=O)NC2=O)cc1)c1ccccn1 (stereo not drawn) [Rosiglitazone maleate]
CYP2C19 AC50 (half-maximal activity concentration) (human CYP2C19 [4]): Inconclusive inhibitor

CCCc1ccc(OCC(=O)N2CCN(C(=O)COc3ccc(CCC)cc3OC)CC2)c(OC)c1 [Simetride]
IC50 (human CYP2C9 [1]): 6.41 ± 6.45 µM | IC50 (human CYP2C19 [2]): 17 ± 19.1 µM

CC(=O)N(c1onc(C)c1C)S(=O)(=O)c1ccc(N)cc1 [Sulfisoxazole acetal]
AC50 (human CYP2C9 [1]; [6]): 25.8 µM

O=C1OC(c2ccc(O)c(S(=O)(=O)O)c2)(c2ccc(O)c(S(=O)(=O)O)c2)c2c(Br)c(Br)c(Br)c(Br)c21 [Sulfobromophthalein]
AC50 (human CYP2C9 [1]; [6]): 43.6 µM

CCC(=O)O[C@H]1CC[C@H]2[C@@H]3CCC4=CC(=O)CC[C@]4(C)[C@H]3CC[C@]12C [Testosterone propionate]
AC50 (human CYP2C9 [1]; [6]): 30.9 µM | AC50 (human CYP2C19 [2]): 26 µM

CCCC(CCC)C(=O)O [Valproic acid]
AC50 (human CYP2C9 [1]; [6]): 47.3 µM

CCC1=C[C@@H]2CN(C1)Cc1c([nH]c3ccccc13)[C@@](C(=O)OC)(c1cc3c(cc1OC)N(C)[C@H]1[C@@](O)(C(=O)OC)[C@H](OC(C)=O)[C@]4(CC)C=CCN5CC[C@]31[C@@H]54)C2 [Vinorelbine tartrate]
IC50 (human CYP2C9 [1]; [5]): 21 µM

O=C(O)Cn1c(=O)n(Cc2ccc(Br)cc2F)c(=O)c2ccc(Cl)cc21 [Zenarestat]
AC50 (human CYP2C9 [1]): 14.4 ± 0.97 µM

CC1(C)C(C=C(Cl)Cl)C1C(=O)OC(C#N)c1cccc(Oc2ccccc2)c1 (stereo not drawn) [alpha-Cypermethrin]
AC50 (human CYP2C9 [1]; [6]): 3.56 µM | AC50 (human CYP2C19 [2]): 6.44 µM

COCCCC/C(=N\OCCN)c1ccc(C(F)(F)F)cc1 [fluvoxamine, reference compound]
IC50 (human CYP1A2; human): 0.2 µM

Cresyl diphenyl phosphate
AC50 (human CYP2C9 [3]): 6.19 µM | CYP2D6 AC50 (half-maximal activity concentration) (human CYP2D6): Inactive | AC50 (human CYP2C19 [4]): 4.18 µM | AC50 (human CYP1A2): 8.9 µM
